US8044036B2 (priority 2005, dated 2011)

Assays:
Pyricularia oryzae = type: cell-based; conditions: application rate 3 ppm; 5 days incubation in PDB; 100% = no fungal growth
Septoria tritici = Septoria tritici test (in vitro)/microtitre plates; type: cell-based; conditions: application rate 0.3 ppm; 5 days incubation in PDB; 100% = no fungal growth

Row | SMILES | Efficacy in % found (Pyricularia oryzae) [%] | Efficacy in % found (Septoria tritici) [%]
1 | OC(Cc1ccccc1Cl)(Cn1nc[nH]c1=S)C1(Cl)CC1 (racemic) [prothioconazole, 2-[(2RS)-2-(1-chlorocyclopropyl)-3-(2-chlorophenyl)-2-hydroxy-propyl]-2H-1,2,4-triazole-3(4H)thione] | 23 | 21
2 | C=CCNC(=O)c1c([Si](C)(C)C)sc(C)c1C [silthiofam, N-alkyl-4,5-dimethyl-2-(trimethylsilyl)thiophene-3-carboxamide] | 29 | 10
